Measurements published in the supplement of paper PMC10883282.
± gives the standard deviation of the averaged measurements.

Test system: SW684
Assay: relative viability vs DMSO control (72 h) (fraction); higher = more viable cells
How it was run: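 Sarcoma cell lines were plated in 384 wells to reach 80–90% confluence, treated after 24 h with 2.5 µl of serially diluted compound and held 72 h at 37 °C, 5% CO2. Relative viability was taken as percent growth from ATPLite readings, averaged over up to triplicate wells. The values were rescaled so that 1 marks full and 0 marks none.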

SMILES	relative viability (0.00017 µM)	relative viability (0.00051 µM)	relative viability (0.00152 µM)	relative viability (0.00457 µM)	relative viability (0.01372 µM)	relative viability (0.04115 µM)	relative viability (0.1235 µM)	relative viability (0.3704 µM)	relative viability (1.111 µM)	relative viability (3.333 µM)	relative viability (10 µM)
CC(C)N1CCN(Cc2cnc(-c3cc(-c4cccc5[nH]ccc45)cc4[nH]ncc34)o2)CC1 [Nemiralisib]	1 ± 0.084	0.911 ± 0.069	0.851 ± 0.033	0.804 ± 0.014	0.721 ± 0.019	0.68 ± 0.051	0.695 ± 0.011	0.618 ± 0.03	0.541 ± 0.035	0.548 ± 0.027	0.444 ± 0.043
Cc1ccc(NC(=O)c2ccc(CN3CCN(C)CC3)cc2)cc1Nc1nc(-c2cccnc2)cs1 [Masitinib]	1.04 ± 0.017	1.07 ± 0.038	1.11 ± 0.029	1.08 ± 0.027	1.07 ± 0.034	1.1 ± 0.025	1.06 ± 0.043	1 ± 0.025	0.851 ± 0.014	0.508 ± 0.066	0.0554 ± 0.0057
CCc1cc2c(cc1N1CCC(N3CCOCC3)CC1)C(C)(C)c1[nH]c3cc(C#N)ccc3c1C2=O [Alectinib]	1.15 ± 0.037	1.13 ± 0.066	1.11 ± 0.035	1.129 ± 0.011	1.19 ± 0.058	1.2 ± 0.1	1.21 ± 0.055	1.22 ± 0.073	1.2 ± 0.055	1.16 ± 0.022	1.18 ± 0.04
COc1cc2nccc(Oc3ccc(NC(=O)Nc4cc(C)on4)c(Cl)c3)c2cc1OC [Tivozanib]	1.17 ± 0.059	1.16 ± 0.028	1.19 ± 0.096	1.19 ± 0.054	1.16 ± 0.042	1.122 ± 0.0093	1.15 ± 0.027	1.23 ± 0.066	1.25 ± 0.092	1.12 ± 0.054	0.918 ± 0.037
